“Also recorded” adds a separate entry of the source.
Legend:
human T1R3-NTD = target: human T1R3-NTD; parameters: method as in PMID 22450161, PMID 22909933; details: cited from earlier work
[1] = target: cT1R1-NTD (N-terminal domain of the cat T1R1 taste receptor) (Felis catus, UniProt A0ABI7Z2I4); test: Ligand binding assay by intrinsic tryptophan fluorescence of refolded cT1R1-NTD; details: for synergetic effect of IMP on L-amino acid binding (shift of binding curve): 0.3 μM IMP final concentration; for maximal amplitude of cT1R1-NTD fluorescence induced by the amino acid in presence of IMP: compared to the other tested L-amino acids
cT1R1-NTD (N-terminal domain of the cat T1R1 taste receptor), sequence (A0ABI7Z2I4 entry or part of it): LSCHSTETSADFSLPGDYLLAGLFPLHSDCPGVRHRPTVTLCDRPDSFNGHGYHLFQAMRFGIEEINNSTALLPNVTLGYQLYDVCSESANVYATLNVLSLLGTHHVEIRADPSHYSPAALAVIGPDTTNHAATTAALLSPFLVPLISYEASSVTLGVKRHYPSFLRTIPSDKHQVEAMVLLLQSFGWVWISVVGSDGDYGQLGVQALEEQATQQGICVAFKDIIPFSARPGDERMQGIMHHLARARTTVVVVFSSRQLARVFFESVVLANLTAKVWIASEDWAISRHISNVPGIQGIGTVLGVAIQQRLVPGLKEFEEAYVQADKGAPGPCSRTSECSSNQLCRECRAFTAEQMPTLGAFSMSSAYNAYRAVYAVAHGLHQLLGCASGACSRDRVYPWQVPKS
Protocol: The intrinsic fluorescence of cT1R1-NTD was measured as previously described by Nie et al. using a Cary Eclipse spectrofluorometer (Varian Instruments) equipped with a Peltier temperature control unit. Sample proteins were excited at 295 nm and emission spectra were recorded from 300 to 400 nm, with 5-nm and 10-nm bandwidth for emission and excitation, respectively. For titration experiments, fluorescence spectra were recorded using 0.5 μM protein solution in 50 mM Tris-HCl pH 8.0, 150 mM NaCl, 1mM DTT and 0.1 mM DDM. Ligand solutions were freshly prepared in the same buffer. Successive aliquots of potential ligands were added to 400 μL of cT1R1-NTD solution. The temperature was kept constant at 20°C. Fluorescence measurements were corrected for dilution, bleaching and nonspecific buffer quenching. Kd values and standard errors were calculated from a plot of the ratio between the fluorescence intensity variation and the maximum of fluorescence intensity variation versus concentration of total ligand, obtained with a standard non-linear regression method and using one site saturation ligand binding equation using SigmaPlot software. […] The Kd values of ligand-receptor interactions were determined using Eq (1) ΔF/ΔFmax = Bmax×[L]/(Kd+[L]) (1) Where Kd value is the apparent dissociation constant, ΔF is the difference between the fluorescence intensity at a given concentration of ligand and the fluorescence intensity in the absence of ligand, and ΔFmax is the difference at infinite ligand concentration [L], Bmax is the maximum fluorescence signal, [L] corresponds to the concentration of ligands. The reported Kd values are the average of more than nine measurements performed on at least three independently refolded protein samples. […] Statistical analyses: Dunnett’s test was used to determine the statistical significance between data means.

[2] = ligand alone, no IMP, Fig 6: 100 μM final concentration, excitation 295 nm, emission 340 nm

Compound	synergetic effect of IMP on L-amino acid binding (shift of binding curve) [1]	effect on cT1R1-NTD intrinsic fluorescence [1, 2]	further results
OC[C@H]1O[C@H](O[C@]2(CCl)O[C@H](CCl)[C@@H](O)[C@@H]2O)[C@H](O)[C@@H](O)[C@H]1Cl [sucralose]			binding affinity (human T1R3-NTD): millimolar range
CC[C@H](C)[C@H](N)C(=O)O [L-Ile]	relatively modest	saturable intrinsic fluorescent enhancement	
N[C@@H](CS)C(=O)O [L-Cys]		no effect; also recorded: does not affect cT1R1-NTD fluorescence	fluorescence enhancement of cT1R1-NTD generated by 0.3 μM IMP in the presence of the amino acid ([1]; 0.3 μM IMP, compared with absence of L-Cys): not significantly different
N=C(N)NCCC[C@H](N)C(=O)O [L-Arg]	relatively modest	saturable intrinsic fluorescent enhancement	maximal amplitude of cT1R1-NTD fluorescence induced by the amino acid in presence of IMP ([1]; 0.3 μM IMP): increased
Nc1nc2c(ncn2[C@@H]2O[C@H](COP(=O)(O)O)[C@@H](O)[C@H]2O)c(=O)[nH]1 [GMP, guanosine-5’-monophosphate]			effect on cT1R1-NTD intrinsic fluorescence ([1]; GMP alone at low concentrations (below 1 μM)): fluorescence enhancement
C[C@H](N)C(=O)O [L-Ala, L-alanine]	relatively modest	saturable intrinsic fluorescent enhancement	
N[C@@H](Cc1c[nH]cn1)C(=O)O [L-His, L-histidine]	more pronounced	saturable intrinsic fluorescent enhancement	maximal amplitude of cT1R1-NTD fluorescence induced by the amino acid in presence of IMP ([1]; 0.3 μM IMP): increased
